Converted amounts (≈) assume the structure as drawn.
Experiments:
CXCR4 = molecular target: T1, CXCR4 (Homo sapiens, UniProt P61073); assay: inhibition of anti-CXCR4 antibody 12G5 binding to CXCR4-expressing cells, cell-based ELISA; details: 25 μM
T1 construct: expressed in transfected cells; host or cells: U373-MAGI-CXCR4CEM cells
Description: Inhibition of anti-CXCR4 antibody binding to CXCR4-expressing cells. The inhibition of the binding of anti-CXCR4 antibody to CXCR4-expressing cells was determined using a cell-based ELISA as described previously (52). Briefly, U373-MAGI-CXCR4CEM cells (1×10^5/well) which express CXCR4 molecules were cultured in a 96-well plate at 37° C. overnight. The cells were fixed with 5% formaldehyde at room temperature for 15 min and washed with PBS-T. The cells were incubated with anti-CXCR4 mAb 12G5 at 37° C. for 1 h in the presence or absence of compounds tested. Isotype IgG2a was used as a control.

[1] = system: HIV-1 RU570 (clade G, R5); details: Primary RU570 (clade G, R5), PBMCs
Description: (§1) Inhibitory activity of compounds on infection by primary HIV-1 isolates was determined as previously described (41). PBMCs were isolated from the blood of healthy donors at the New York Blood Center by standard density gradient centrifugation using Histopaque-1077 (Sigma). The cells were plated in 75 cm^2 plastic flasks and incubated at 37° C. for 2 hrs. The nonadherent cells were collected and resuspended at 5×10^6 in 10 ml RPMI-1640 medium containing 10% FBS, 5 μg/ml PHA and 100 U/ml IL-2 (Sigma), followed by incubation at 37° C. for 3 days. The PHA-stimulated cells were infected with corresponding primary HIV-1 isolates at 0.01 multiplicity of infection (MOI) in the absence or presence of a compound at graded concentrations. Culture media were changed every 3 days. The supernatants were collected 7 days post-infection and tested for p24 antigen by ELISA as described above. The percent inhibition of p24 production and IC50 values were calculated as described above.

[2] = system: HIV-1 93BR020 (clade F, X4R5); details: Primary 93BR020 (clade F, X4R5), PBMCs
Description: as §1

[3] = system: HIV-1 93TH051 (clade E, X4R5); details: Primary 93TH051 (clade E, X4R5), PBMCs
Description: as §1

[4] = molecular target: gp41 six-helix bundle formed by N36 and C34-FITC (Human immunodeficiency virus type 1 group M subtype B, UniProt P04578); details: 200 μg/ml; for gp41 six-helix bundle formation in FN-PAGE: added after N36 preincubated with C34-FITC; for gp41 six-helix bundle band in FN-PAGE: preincubated with N36 before addition of C34-FITC
Description: Fluorescence native polyacrylamide gel electrophoresis (FN-PAGE). FN-PAGE was performed as previously described (32). Briefly, 18% pre-cast Tris-Glycine gels and Novex X-Cell II Mini cell (Invitrogen, Carlsbad, Calif.) were used for native-PAGE. […] In the control, N36 was incubated with C34-FITC at 37° C. for 30 min before addition of the compounds. After incubation at 37° C. for another 30 min, the mixture was diluted in Tris-Glycine native sample buffer, then loaded to 10×1.0 mm wells. Gel electrophdrosis was carried out with 125 V constant voltage at room temperature for about 90 min in Tris-Glycine native running buffer. Immediately after electrophoresis, image of the fluorescence bands in the gel was taken by the FluorChem 8800 Imaging System (Alpha Innotech corp., San Leandro, Calif.) using a transillumination UV light source with excitation wavelength at 302 nm and a fluorescence filter with emission wavelength at 520 nm.

HIV-1IIIB [5] = assay: time-of-addition assay; format: cell-based; details: for time of addition at which HIV replication is inhibited: summary statement
Description: (§2) Assessment of anti-HIV-1 infectivity. […] Reactions were terminated by addition of 1N H2SO4.
MT-2 cells were incubated with HIV-1IIIB at 37° C. for 0, 1, 2, 3, 4, 6, and 8 hrs, respectively, before addition of the test compounds at 10 μg/ml. AZT (2.5 μM) was used as a control. After culture for another 2 hrs, the cells were washed to remove the free virus and compounds. The supernatants were collected on day 4 post-infection for measurement of p24 production.

gp120-CD4 binding = molecular target: T2, gp120-CD4 binding (Human immunodeficiency virus type 1 group M subtype B, UniProt P03375); design: species or system HIV-1; details: 10 μg/ml
T2 construct: purchased Immunodiagnostics, Woburn, Mass; (gp120); Genentech Inc., South San Francisco, Calif; (sCD4)
Description: Inhibition of gp120 binding to CD4. Wells of polystyrene plates was coated with 100 μl of sheep anti-gp120 antibody D7324 (Cliniqa, Fallbrook, Calif.) at 2 μg/ml in carbonate buffer (pH 9.6) at 4° C. overnight and blocked with 1% dry fat-free milk in PBS at 37° C. for 1 h. One hundred microliters of recombinant gp120 molecule (Immunodiagnostics, Woburn, Mass.) at 0.5 μg/ml in PBS was added and incubated at 37° C. for 1 h, followed by three washes with PBS-T. Soluble CD4 (sCD4) at 0.25 μg/ml was added in the presence of a compound (25 μM) and incubated at 37° C. for 1 h. After three washes, rabbit anti-sCD4 IgG (0.25 μg/ml in PBS, 100 μl/well) was added and incubated at 37° C. for 1 h. Binding of rabbit anti-sCD4 IgG was determined by sequential addition of biotinylated goat-anti-rabbit IgG, SA-HRP, and TMB. After the reactions were terminated, absorbance at 450 nm was recorded in an ELISA reader (Tecan).
HIV-1 envelope glycoprotein gp120 was captured by the anti-gp120 antibody coated onto wells of polystyrene plates. […] After extensive washes, CD4 molecule bound to gp120 was quantitated by ELISA using anti-CD4 antibody.

HIV-1IIIB [6] = assay: inhibition of HIV-1IIIB replication (p24 production) in MT-2 cells; format: cell-based; details: for IC50: HIV-1IIIB replication, MT-2 cells; for inhibitory activity on HIV-1IIIB replication: concentration up to 80 μg/ml
Text: as §2

[7] = 10 μg/ml added one hour or longer after virus
[8] = 10 μg/ml added to the cells with virus together

gp41 six-helix bundle formed by N36 and C34-FITC, sequence (P04578 546-581): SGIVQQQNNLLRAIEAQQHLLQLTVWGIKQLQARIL
T1 sequence (P61073 whole entry): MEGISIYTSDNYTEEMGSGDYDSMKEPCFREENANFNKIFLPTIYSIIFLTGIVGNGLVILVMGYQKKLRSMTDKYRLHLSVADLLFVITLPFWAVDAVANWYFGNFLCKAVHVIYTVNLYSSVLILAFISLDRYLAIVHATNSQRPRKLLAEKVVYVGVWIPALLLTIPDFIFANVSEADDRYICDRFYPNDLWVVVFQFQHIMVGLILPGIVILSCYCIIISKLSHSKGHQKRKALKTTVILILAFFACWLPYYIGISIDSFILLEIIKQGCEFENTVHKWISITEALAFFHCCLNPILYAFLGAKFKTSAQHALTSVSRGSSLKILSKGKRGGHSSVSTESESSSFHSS

SMILES	inhibition of 12G5 binding to U373-MAGI-CXCR4CEM cells (CXCR4)	IC50 (μg/ml) for inhibition of p24 production [1] [µg/mL]	IC50 (μg/ml) for inhibition of p24 production [2] [µg/mL]	IC50 (μg/ml) for inhibition of p24 production [3] [µg/mL]	gp41 six-helix bundle formation in FN-PAGE [4]	gp41 six-helix bundle band in FN-PAGE [4]	inhibition of HIV-1 replication, time of addition (HIV-1IIIB [5]; [7])	inhibition of HIV-1 replication, time of addition (HIV-1IIIB [5]; [8])	time of addition at which HIV replication is inhibited (HIV-1IIIB [5])	inhibition of gp120-CD4 binding (gp120-CD4 binding)	IC50 (HIV-1IIIB [6]) [µg/mL]	inhibitory activity on HIV-1IIIB replication (HIV-1IIIB [6])
Cc1ccc(C)n1-c1ccc(C(=O)O)c(O)c1 [NB-2]	no inhibitory activity	23.12 ± 1.23	2.50 ± 0.01	1.15 ± 0.14	not inhibited	the intensity of the upper bands were significantly decreased	no inhibitory activity	inhibited HIV-1 replication	only when they were added to the cells less than two hours after virus addition	did not significantly inhibited	0.24 ± 0.05 (≈ 1.04 µM)	significantly inhibited
O=C(O)c1cc(-n2cccc2)ccc1Cl [NB-64]	no inhibitory activity	8.81 ± 0.24	1.05 ± 0.18	5.24 ± 1.80	not inhibited	the intensity of the upper bands were significantly decreased	no inhibitory activity	inhibited HIV-1 replication	only when they were added to the cells less than two hours after virus addition	did not significantly inhibited	0.49 ± 0.09 (≈ 2.21 µM)	significantly inhibited
